The subject of one data set is HCT116 cells (carcinoma). The data set can be described thus: HCT116 xenograft in SCID mice. The class given is in vivo. Particulars: 25 mg/kg daily, 21 days of treatment. On the procedure:
(§1) SCID mice were injected subcutaneously with either 1 million HCT116 cells (carcinoma) or HT29 cells (adenocarcinoma) both of which are colon cancer cells. After 2 weeks tumors developed could be seen and the process of injecting AT-01C peptide was initiated. For HCT116 xenograft mice model AT-01C peptide of 25 mg/kg body weight of mice was injected intra-peritoneally. In case of HT29 xenograft mice model AT-01C peptide of 50 mg/kg body weight of mice was injected intra-peritoneally. Stock concentration of the AT-01C was 10 mg/ml. Both the mice group were injected with AT-01C peptide for 21 days daily just 5 mm away from the tumors. The daily injection was performed by injecting AT-01C surrounding the tumors being developed. After 21 days of injection tumors excised and their weight and volume was measured.
(§2) Tumors raised in SCID mice by subcutaneously injecting either 1 million HCT116 cells or HT29 cells (Xenograft model). After tumors developed and were visible to eyes AT-01C peptide treatment was started. For tumors raised using HCT116 colon cancer cells AT-01C of 25 mg/kg body weight of mice was injected intra-peritoneally. AT-01C peptide of 50 mg/kg body weight was injected intra-peritoneally as treatment for tumors raised with HT29 cells. AT-01C was injected daily surrounding the tumor 5 mm away from it. After 21 days of peptide injection, mice were sacrificed and tumors excised. […]

The test system of data set [1] is HT29 cells (adenocarcinoma). The data set is described as follows: HT29 xenograft in SCID mice. The format is in vivo. The note with it: 50 mg/kg daily, 21 days of treatment. As to the method:
as §1, §2

In data set [2] the target is T1, SMAR1 (Homo sapiens, UniProt Q8N9N5).
T1 construct: HCT116 cells treated with different available peptides for 48 hours stabilized SMAR1 expression; endogenous in cells; host or cells: HCT116 p53+/+, HCT116 p53-/-, MCF7, SW620, NCI-H522, MDA-MB231
T1 sequence (Q8N9N5 1-519): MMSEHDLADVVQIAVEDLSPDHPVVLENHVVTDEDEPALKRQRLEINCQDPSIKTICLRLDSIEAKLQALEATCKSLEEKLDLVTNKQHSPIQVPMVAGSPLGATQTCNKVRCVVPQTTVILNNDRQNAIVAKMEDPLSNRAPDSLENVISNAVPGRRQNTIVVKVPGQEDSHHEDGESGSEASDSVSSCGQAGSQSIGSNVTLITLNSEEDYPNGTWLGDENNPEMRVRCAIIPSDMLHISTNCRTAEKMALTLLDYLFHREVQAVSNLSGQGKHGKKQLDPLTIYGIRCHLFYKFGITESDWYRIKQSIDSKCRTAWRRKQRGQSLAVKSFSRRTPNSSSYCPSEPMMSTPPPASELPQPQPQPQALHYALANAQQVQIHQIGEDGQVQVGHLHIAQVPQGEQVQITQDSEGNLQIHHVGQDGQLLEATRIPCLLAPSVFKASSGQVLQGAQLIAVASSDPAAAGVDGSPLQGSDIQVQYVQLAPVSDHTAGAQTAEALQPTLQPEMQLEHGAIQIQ
The data set can be described thus: SMAR1 stabilization/induction in HCT116 cells (western blot). The format is cell-based. Particulars: peptide treatment 48 hours.

Data set [3] deals with SMAR1. The data set can be described thus: Peptide interaction assay by ITC, SMAR1. The format is binding. Particulars: 25° C.
The target of data set [4] is T1, SMAR1. The data set can be described thus: SMAR1 stabilization across a variety of cancer cell lines (MCF7, SW620, NCI-H522, HCT116p53-/-, MDA-MB231). The format is cell-based. Particulars: different concentrations.
For data set [5], the target named is T1, SMAR1. The data set can be described thus: SMAR1 induction in HCT116p53-/- cells. The class given is cell-based.
Data set [6] concerns MDA-MB231 breast cancer cells. The data set is described as follows: Wound healing / cell migration assay. The format is cell-based, Human. The note with it: MDA-MB231, 10 μg peptide, recorded up to 16 hours, vs DMSO control. As to the method:
MDA-MB231 breast cancer cells (1×10^^6) were seeded in a 6 well plate and maintained in L15 DMEM medium supplemented with 10% FBS and 100 Units of Penicillin Streptomycin antibiotics for 24 hours. Cells were treated for 24 hours with AT-01C and AT-01D peptides of 10 μg each. Post 24 hours wound was created and washed with medium to remove the cells detached during wound creation. Fresh peptides were added plate was mounted at the microscope chamber maintaining the temperature of 37° C. Images were acquired in NIKON Confocal Microscope for 5 minutes interval. Time lapse was set for 16 hours and images were compiled to make the video movie of the cell migration.

The subject of a further data set is MDA-MB231 cells. The data set is described as follows: Annexin V staining by flow cytometry (FACS). The note with it: after peptide treatment. The class given is cell-based, Human.
For a further data set, the system named is HCT116 cells. The data set is described as follows: Colony formation assay. The class given is cell-based. As to the method: 200 HCT116 cells seeded in 35 mm petri dishes and cultured for 24 hours. 10 μg of AT-01D added fresh every two days up to day 12th. Cell were washed with 1× Phosphate Buffer Saline and then fixed using 3% Para-formaldehyde for 10 minutes. Cells were washed and stained with Crystal violet for 30 minutes. After washing with PBS plates were kept inverted and air dried. Colonies were counted using inverted bright field microscope (Nikon). A group of cells were identified to be a colony that consists of more than 50 cells.

For data set [7], the system named is SMAR1. The data set can be described thus: PCR of SMAR1 mRNA in HCT116p53+/+ cells. The note with it: 48 hours.
Data set [8] has as its target T2, Scaffold Matrix Attachment Region Binding Protein 1 (SMAR1), full length (UniProt Q8N9N5 1-519).
T2 construct: This molecule also stands for endogenous SMAR1 of HCT116 cells in the functional rows
T2 sequence: T1 sequence (Q8N9N5 1-519)
The data set is described as follows: ITC, 25 C.

“Also recorded” adds a separate entry of the source. Ends that are not written are not given here.

Consider ATATVNAIRGSVTPAVSQFN [AT-01C], for which the survival of mice entry (in the data set on HCT116 cells (carcinoma); in data set [1]) was “All the mice survived” in each case.

Consider “GQVWEATATVNAIRGSVTPAVSQFNARTAD (The sequence is developed from MPT63 of M. tuberculosis) [AT-01, 30 amino acid peptide synthesized from MPT-63 of M. tuberculosis]”, for which the “SMAR1 stabilization / induction” value in the data set with SMAR1 [2] is listed as “very less or no induction of SMAR1”. In addition, the “interaction with SMAR1 (ITC)” value in the data set with SMAR1 [3] was “failed to interact with SMAR1”.

Consider “NAIRGSVTPAVSQFN (The sequence is developed from MPT63 of M. tuberculosis) [AT-01D]”, for which the “SMAR1 stabilization / induction” value in the data set with SMAR1 [2] was “heightened effectiveness; also recorded: superior induction of SMAR1; also recorded: stabilized SMAR1 the most; also recorded: significantly induce expression of SMAR1”. For the same molecule, the SMAR1 stabilization result in the data set with SMAR1 [4] is listed as “heightened effectiveness”. For the same molecule, the “induction of SMAR1” value in the data set with SMAR1 [5] was “induction of SMAR1 was observed”. In the data set with SMAR1 [3], the “interaction with SMAR1 (ITC)” value is given as “positive results”. Moreover, the cell migration entry in data set [6] is given as “mitigation of anticipated cell migration; also recorded: attenuate migration”. The “cell death (Annexin V)” value with MDA-MB231 cells is recorded as “no signs of cell death”. Moreover, the “colony formation / rate of cell proliferation” value in the data set on HCT116 cells (HCT116, 10 μg, 12 days, vs DMSO control) is given as “delayed or decreased”. The “apoptotic cells in colony formation culture” value with HCT116 cells (HCT116, till the 12th day) was “No apoptotic cells or group of cells observed”. Besides, the “transcriptional regulation of SMAR1 (PCR)” value in the data set on SMAR1 [7] is “failed to control the transcriptional regulation of SMAR1”.

B1: AT-01 (peptide)
peptide: GQVWEATATVNAIRGSVTPAVSQFNARTAD
notes: also called parent 30 amino acid peptide
In the case of B1, the binding result in data set [8] was “no binding”.

The values are drawn from patent publication US20190382454A1, “A MODIFIED PEPTIDE AS AN ANTICANCER AGENT” (Amrita Therapeutics Limited, priority 2015, published 2019).
